Measurements: PubChem BioAssay AID2060604 (Molecular Pharmacology Branch, DTP, NCI, 2025)
Several values for one entry are separate records, joined by “and”; a condition that tells them apart may be missing. Identical values can stand only once.

Tested on: 379773-124-R-J2-PDC complex spheroids, viability % test/control
Experiment: Anticancer human tumor 379773-124-R-J2-PDC patient-derived endometrial carcinoma cell line growth inhibition [CLK]
Conditions: for viability, T/C: stronger effect = lower value; active = viability on the fitted dose curve at most 10% of control; inactive = the rest
In short: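 Multi-cell-type spheroids combined patient-derived tumor cells with HUVEC endothelial cells and human mesenchymal stem cells. Paired agents were dosed in half-log steps down from about clinical Cmax, or from 10 microM where Cmax was unknown.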

[1] = curve of first compound, second compound 0.0316 µM
[2] = curve of first compound, second compound 0.1 µM
[3] = curve of first compound, second compound 0.316 µM
[4] = curve of first compound, second compound 1 µM
[5] = curve of first compound, second compound 3.16 µM
[6] = curve of first compound, second compound 10 µM
[7] = second compound 0.0316 µM, first compound 0.0316 µM
[8] = second compound 0.0316 µM, first compound 0.1 µM
[9] = second compound 0.0316 µM, first compound 0.316 µM
[10] = second compound 0.0316 µM, first compound 1 µM
[11] = second compound 0.0316 µM, first compound 3.16 µM
[12] = second compound 0.0316 µM, first compound 10 µM
[13] = second compound 0.1 µM, first compound 0.0316 µM
[14] = second compound 0.1 µM, first compound 0.1 µM
[15] = second compound 0.1 µM, first compound 0.316 µM
[16] = second compound 0.1 µM, first compound 1 µM
[17] = second compound 0.1 µM, first compound 3.16 µM
[18] = second compound 0.1 µM, first compound 10 µM
[19] = second compound 0.316 µM, first compound 0.0316 µM
[20] = second compound 0.316 µM, first compound 0.1 µM
[21] = second compound 0.316 µM, first compound 0.316 µM
[22] = second compound 0.316 µM, first compound 1 µM
[23] = second compound 0.316 µM, first compound 3.16 µM
[24] = second compound 0.316 µM, first compound 10 µM
[25] = second compound 1 µM, first compound 0.0316 µM
[26] = second compound 1 µM, first compound 0.1 µM
[27] = second compound 1 µM, first compound 0.316 µM
[28] = second compound 1 µM, first compound 1 µM
[29] = second compound 1 µM, first compound 3.16 µM
[30] = second compound 1 µM, first compound 10 µM
[31] = second compound 3.16 µM, first compound 0.0316 µM
[32] = second compound 3.16 µM, first compound 0.1 µM
[33] = second compound 3.16 µM, first compound 0.316 µM
[34] = second compound 3.16 µM, first compound 1 µM
[35] = second compound 3.16 µM, first compound 3.16 µM
[36] = second compound 3.16 µM, first compound 10 µM
[37] = second compound 10 µM, first compound 0.0316 µM
[38] = second compound 10 µM, first compound 0.1 µM
[39] = second compound 10 µM, first compound 0.316 µM
[40] = second compound 10 µM, first compound 1 µM
[41] = second compound 10 µM, first compound 3.16 µM
[42] = second compound 10 µM, first compound 10 µM
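Also: compound exposure lasted seven days before the viability readout.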
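For viability, T/C in this document: 100% = DMSO vehicle control wells.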

CCCS(=O)(=O)Nc1ccc(F)c(C(=O)c2c[nH]c3ncc(-c4ccc(Cl)cc4)cc23)c1F + CN1CCN(c2cc(C(=O)Nc3cc4cc(-c5cnn(C)c5)ccc4cn3)ccn2)CC1
inactive: viability, T/C [7] 80.5% | viability, T/C [8] 86.1% | viability, T/C [9] 94.8% | viability, T/C [10] 90.1% | viability, T/C [11] 82.4% | viability, T/C [12] 58.7% | viability, T/C [13] 83.6% | viability, T/C [14] 65.8% | viability, T/C [15] 75.8% | viability, T/C [16] 70.2% | viability, T/C [17] 68.9% | viability, T/C [18] 54.8% | viability, T/C [19] 26.6% | viability, T/C [20] 27.3% | viability, T/C [21] 30.2% | viability, T/C [22] 27.2% | viability, T/C [23] 29.8% | viability, T/C [24] 18.3%
< 31.6 nM: IC50 [3] | IC50 [4] | IC50 [5] | IC50 [6]
active: viability, T/C [25] 0.16% | viability, T/C [26] 0.29% | viability, T/C [27] 0.14% | viability, T/C [28] 0.13% | viability, T/C [29] 1.03% | viability, T/C [30] 0.09% | viability, T/C [31] 0.1% | viability, T/C [32] 0.48% | viability, T/C [33] 0.12% | viability, T/C [34] 0.91% | viability, T/C [35] 0.09% | viability, T/C [36] 0.51% | viability, T/C [37] 0.14% | viability, T/C [38] 1.01% | viability, T/C [39] 0.7% | viability, T/C [40] 2.8% | viability, T/C [41] 0.19% | viability, T/C [42] 0.29%
> 10000 nM: IC50 [1] | IC50 [2]

COc1ccc([C@@H](O)c2cc(-c3ncnc4cc(N5CCOCC5)ccc34)c(F)cc2Cl)nn1 + CNC(=O)c1ccc(Nc2nc(OC3CCCC3)c3c(-c4ccc5nc(C)oc5c4)c[nH]c3n2)c(OC)c1
3420 nM: IC50 [1]
active: viability, T/C [24] 7.43% | viability, T/C [30] 6.1% | viability, T/C [36] 4.62% | viability, T/C [42] 4.23%
inactive: viability, T/C [7] 79.2% | viability, T/C [8] 79.9% | viability, T/C [9] 68% | viability, T/C [10] 60.6% | viability, T/C [11] 58.7% | viability, T/C [12] 20.4% | viability, T/C [13] 35.6% | viability, T/C [14] 30.8% | viability, T/C [15] 32.7% | viability, T/C [16] 29.7% | viability, T/C [17] 24% | viability, T/C [18] 12.7% | viability, T/C [19] 45.2% | viability, T/C [20] 38% | viability, T/C [21] 29% | viability, T/C [22] 21.6% | viability, T/C [23] 15.1% | viability, T/C [25] 34.8% | viability, T/C [26] 35% | viability, T/C [27] 32.1% | viability, T/C [28] 25.9% | viability, T/C [29] 14.9% | viability, T/C [31] 34.7% | viability, T/C [32] 32.3% | viability, T/C [33] 27.8% | viability, T/C [34] 19.3% | viability, T/C [35] 15.7% | viability, T/C [37] 32.8% | viability, T/C [38] 33.7% | viability, T/C [39] 23.4% | viability, T/C [40] 17.9% | viability, T/C [41] 14.2%
< 31.6 nM: IC50 [2] | IC50 [3] | IC50 [4] | IC50 [5] | IC50 [6]

O=C(c1cc(Cc2n[nH]c(=O)c3ccccc23)ccc1F)N1CCN(C(=O)C2CC2)CC1
> 10000 nM: IC50 (curve of compound)
inactive: viability, T/C (compound 0.0316 µM) 83.1% and 108% | viability, T/C (compound 0.1 µM) 89% and 86.6% | viability, T/C (compound 0.316 µM) 89.2% and 84.2% | viability, T/C (compound 1 µM) 89.5% and 80.5% | viability, T/C (compound 3.16 µM) 81.5% and 78.6% | viability, T/C (compound 10 µM) 56.1% and 47%

C=C(F)C(=O)N1CCN(c2nc(OCC3CCCN3C)nc3c2CCN(c2cccc4cccc(Cl)c24)C3)CC1CC#N (stereo not given) + CN1CCN(c2cc(C(=O)Nc3cc4cc(-c5cnn(C)c5)ccc4cn3)ccn2)CC1
inactive: viability, T/C [7] 87.9% | viability, T/C [8] 86% | viability, T/C [9] 86% | viability, T/C [10] 88.7% | viability, T/C [11] 73.9% | viability, T/C [13] 85.8% | viability, T/C [14] 72.8% | viability, T/C [15] 90.9% | viability, T/C [16] 79.5% | viability, T/C [17] 45.3% | viability, T/C [19] 28.3% | viability, T/C [20] 36.7% | viability, T/C [21] 31.8% | viability, T/C [22] 37.5% | viability, T/C [23] 13.6%
< 31.6 nM: IC50 [3] | IC50 [4] | IC50 [5] | IC50 [6]
active: viability, T/C [12] 1.28% | viability, T/C [18] 1% | viability, T/C [24] 0.93% | viability, T/C [25] 0.49% | viability, T/C [26] 0.17% | viability, T/C [27] 0.3% | viability, T/C [28] 1.49% | viability, T/C [29] 0.88% | viability, T/C [30] 0.75% | viability, T/C [31] 1.35% | viability, T/C [32] 0.14% | viability, T/C [33] 2.05% | viability, T/C [34] 0.84% | viability, T/C [35] 1.24% | viability, T/C [36] 0.11% | viability, T/C [37] 0.66% | viability, T/C [38] 1.65% | viability, T/C [39] 0.21% | viability, T/C [40] 0.22% | viability, T/C [41] 0.2% | viability, T/C [42] 0.65%
4620 nM: IC50 [1]
2700 nM: IC50 [2]

COC1C=CCC(C)C(C)S(=O)(=O)NC(=O)c2ccc3c(c2)N(CC2CCC21)CC1(CCCc2cc(Cl)ccc21)CO3 (stereo not given) + CNC(=O)c1ccc(Nc2nc(OC3CCCC3)c3c(-c4ccc5nc(C)oc5c4)c[nH]c3n2)c(OC)c1
5290 nM: IC50 [1]
inactive: viability, T/C [7] 85.2% | viability, T/C [8] 82.8% | viability, T/C [9] 90.5% | viability, T/C [10] 90% | viability, T/C [11] 90% | viability, T/C [13] 41.3% | viability, T/C [14] 35.1% | viability, T/C [15] 33.8% | viability, T/C [16] 29.2% | viability, T/C [17] 37% | viability, T/C [18] 3.05% | viability, T/C [19] 37.3% | viability, T/C [20] 39.6% | viability, T/C [21] 30.1% | viability, T/C [22] 20.1% | viability, T/C [23] 20.5% | viability, T/C [25] 36.4% | viability, T/C [26] 36.4% | viability, T/C [27] 25.6% | viability, T/C [28] 20.1% | viability, T/C [29] 18.1% | viability, T/C [31] 31.5% | viability, T/C [32] 33.8% | viability, T/C [33] 23.3% | viability, T/C [34] 18.4% | viability, T/C [35] 13% | viability, T/C [37] 35.1% | viability, T/C [38] 42.5% | viability, T/C [39] 30.4% | viability, T/C [40] 21.6% | viability, T/C [41] 11.7%
active: viability, T/C [12] 3.4% | viability, T/C [24] 2.22% | viability, T/C [30] 2.26% | viability, T/C [36] 1.56% | viability, T/C [42] 1.66%
< 31.6 nM: IC50 [2] | IC50 [3] | IC50 [4] | IC50 [5] | IC50 [6]
